# Where two headings read alike, the source gives them in different places.
# Test: Plasma pharmacokinetics after a single subcutaneous administration of LEN
# Assay type: in vivo, rhesus macaques
# Details: male, rhesus monkey, plasma; for concentration at 9 week: week 9 post dose; for concentration at 10 week: week 10 post dose; for concentration at 11 week: week 11 post dose; for concentration at 12 week: week 12 post dose; for concentration at 13 week: week 13 post dose; for concentration at 14 week: week 14 post dose; for concentration at 15 week: week 15 post dose; for concentration at 16 week: week 16 post dose; for concentration at 17 weeks post challenge: week 17 post challenge; for concentration at 18 weeks post challenge: week 18 post challenge; for concentration at 0 weeks post challenge: week 0 post challenge; for concentration at 1 weeks post challenge: week 1 post challenge; for concentration at 2 weeks post challenge: week 2 post challenge; for concentration at 3 weeks post challenge: week 3 post challenge; for concentration at 4 weeks post challenge: week 4 post challenge; for concentration at 5 weeks post challenge: week 5 post challenge; for concentration at 6 weeks post challenge: week 6 post challenge; for concentration at 7 weeks post challenge: week 7 post challenge; for concentration at 0.14 week / concentration at 0.43 week / concentration at 1 week / concentration at 2 week / concentration at 17 week / concentration at 18 week / concentration at 19 week / concentration at 20 week / concentration at 21 week / concentration at 22 week / concentration at 23 week / concentration at 24 week / concentration at 25 week: Indian-origin, outbred; for concentration at 0.14 week: week 0.14 post dose; for concentration at 0.43 week: week 0.43 post dose; for concentration at 1 week: week 1 post dose; for concentration at 2 week: week 2 post dose; for concentration at 17 week: week 17 post dose; for concentration at 18 week: week 18 post dose; for concentration at 19 week: week 19 post dose; for concentration at 20 week: week 20 post dose; for concentration at 21 week: week 21 post dose; for concentration at 22 week: week 22 post dose; for concentration at 23 week: week 23 post dose; for concentration at 24 week: week 24 post dose; for concentration at 25 week: week 25 post dose; for half-life: sc; for concentration at 3 weeks: week 3 post dose; for concentration at 4 weeks: week 4 post dose; for concentration at 5 weeks: week 5 post dose; for concentration at 6 weeks: week 6 post dose
# Protocol: All animals were housed at Bioqual Inc. For the in vivo SHIV stock titration study, 8 untreated outbred Indian-origin male rhesus macaques aged 3–5 years were challenged intrarectally per round for a total of 5 challenge rounds using increasing virus doses ranging from 0.625 to 100 TCID50, with the 100 TCID50 round performed twice for increased resolution (Supplemental Table 2). Plasma viral load was measured to confirm the infection status. […] Injection sites were monitored daily by veterinary staff for 2 weeks and then weekly through the end of study. On week 7, 11 animals were challenged by the intrarectal route with 1 mL RPMI containing 100 TCID50 SHIV-SF162P3. Whole blood was collected and processed into plasma and PBMCs as necessary for the assessment of routine hematology and clinical chemistry, viral load analysis, serology, and the bioanalysis of drug levels. Animals were considered protected if they remained SHIV negative by a plasma PCR assay and seronegative by enzyme immunoassay through week 10 after challenge.
# Rhesus plasma samples were stored frozen at –80°C and thawed, and a 50 μL aliquot of each was treated with 200 μL acetonitrile containing an internal standard. After precipitation of the protein component, a 100 μL aliquot of the supernatant was transferred to a clean 96-well plate and mixed with 200 μL water. A 10 μL aliquot of the above solution was then injected into a Q-Exactive high resolution mass spectrometer from Thermo Electron with electrospray ionization in positive mode.
# [1] = Indian-origin (outbred), subcutaneous, 50 mg/kg, Plasma LEN (Mean), 50 mg/kg sc
# [2] = Indian-origin (outbred), subcutaneous, 50 mg/kg, Plasma LEN, animal CO92, 50 mg/kg
# [3] = Indian-origin (outbred), subcutaneous, 50 mg/kg, Plasma LEN, animal V411, 50 mg/kg
# [4] = Indian-origin (outbred), subcutaneous, 50 mg/kg, Plasma LEN, animal V430, 50 mg/kg
# [5] = Indian-origin (outbred), subcutaneous, 50 mg/kg, Plasma LEN, animal V470, 50 mg/kg
# [6] = Indian-origin (outbred), subcutaneous, 75 mg/kg, Plasma LEN (Mean), 75 mg/kg sc
# [7] = Indian-origin (outbred), subcutaneous, 75 mg/kg, Plasma LEN, animal CP67, 75 mg/kg
# [8] = Indian-origin (outbred), subcutaneous, 75 mg/kg, Plasma LEN, animal V417, 75 mg/kg
# [9] = Indian-origin (outbred), subcutaneous, 75 mg/kg, Plasma LEN, animal V426, 75 mg/kg
# [10] = Indian-origin (outbred), subcutaneous, 75 mg/kg, Plasma LEN, animal V435, 75 mg/kg
# [11] = subcutaneous, 5 mg/kg, Plasma LEN (Mean), 5 mg/kg sc
# [12] = subcutaneous, 10 mg/kg, Plasma LEN (Mean), 10 mg/kg sc
# [13] = subcutaneous, 20 mg/kg, Plasma LEN (Mean), 20 mg/kg sc
# [14] = subcutaneous, 50 mg/kg, Plasma LEN (Mean), 50 mg/kg sc
# [15] = subcutaneous, 75 mg/kg, Plasma LEN (Mean), 75 mg/kg sc
# [16] = outbred Indian-origin, subcutaneous, 5 mg/kg, Plasma LEN (Mean), 5 mg/kg sc
# [17] = outbred Indian-origin, subcutaneous, 10 mg/kg, Plasma LEN (Mean), 10 mg/kg sc
# [18] = outbred Indian-origin, subcutaneous, 20 mg/kg, Plasma LEN (Mean), 20 mg/kg sc
# [19] = outbred Indian-origin, subcutaneous, 50 mg/kg, Plasma LEN (Mean), 50 mg/kg sc
# [20] = outbred Indian-origin, subcutaneous, 75 mg/kg, Plasma LEN (Mean), 75 mg/kg sc
# [21] = outbred Indian-origin, 50 mg/kg sc, mean ± SD
structure (smiles),measurement,setting,value
"CC(C)(C#Cc1ccc(-c2ccc(Cl)c3c(NS(C)(=O)=O)nn(CC(F)(F)F)c23)c([C@H](Cc2cc(F)cc(F)c2)NC(=O)Cn2nc(C(F)(F)F)c3c2C(F)(F)[C@@H]2C[C@H]32)n1)S(C)(=O)=O [LEN, Lenacapavir]",concentration at 9 week,[1],51.7 nM
same,concentration at 10 week,[1],48.7 nM
same,concentration at 11 week,[1],45.5 nM
same,concentration at 12 week,[1],37.9 nM
same,concentration at 13 week,[1],37.9 nM
same,concentration at 14 week,[1],21 nM
same,concentration at 15 week,[1],18.4 nM
same,concentration at 16 week,[1],22.2 nM
same,concentration at 17 weeks post challenge,[2],13.6 nM
same,concentration at 18 weeks post challenge,[2],13.1 nM
same,concentration at 17 weeks post challenge,[3],2.22 nM
same,concentration at 18 weeks post challenge,[3],2 nM
same,concentration at 16 weeks post challenge,"Indian-origin (outbred), subcutaneous, 50 mg/kg, Plasma LEN, animal V430, 50 mg/kg, week 16 post challenge",1.24 nM
same,concentration at 17 weeks post challenge,[4],1 nM
same,concentration at 18 weeks post challenge,[4],1 nM
same,concentration at 17 weeks post challenge,[5],8.55 nM
same,concentration at 18 weeks post challenge,[5],10.5 nM
same,concentration at 8 week,"Indian-origin (outbred), subcutaneous, 75 mg/kg, Plasma LEN (Mean), 75 mg/kg sc, week 8 post dose",55 nM
same,concentration at 9 week,[6],72.6 nM
same,concentration at 10 week,[6],98 nM
same,concentration at 11 week,[6],71.3 nM
same,concentration at 12 week,[6],53.5 nM
same,concentration at 13 week,[6],73.8 nM
same,concentration at 14 week,[6],37.9 nM
same,concentration at 15 week,[6],24.6 nM
same,concentration at 16 week,[6],30.9 nM
same,concentration at 0 weeks post challenge,[7],154 nM
same,concentration at 1 weeks post challenge,[7],95.4 nM
same,concentration at 2 weeks post challenge,[7],136 nM
same,concentration at 3 weeks post challenge,[7],144 nM
same,concentration at 4 weeks post challenge,[7],88.1 nM
same,concentration at 5 weeks post challenge,[7],87.8 nM
same,concentration at 6 weeks post challenge,[7],97.6 nM
same,concentration at 7 weeks post challenge,[7],46.5 nM
same,concentration at 0 weeks post challenge,[8],158 nM
same,concentration at 1 weeks post challenge,[8],43.9 nM
same,concentration at 2 weeks post challenge,[8],52.5 nM
same,concentration at 3 weeks post challenge,[8],88.5 nM
same,concentration at 4 weeks post challenge,[8],69 nM
same,concentration at 5 weeks post challenge,[8],48.8 nM
same,concentration at 6 weeks post challenge,[8],57.3 nM
same,concentration at 7 weeks post challenge,[8],43.9 nM
same,concentration at 0 weeks post challenge,[9],178 nM
same,concentration at 1 weeks post challenge,[9],68 nM
same,concentration at 2 weeks post challenge,[9],89.7 nM
same,concentration at 3 weeks post challenge,[9],144 nM
same,concentration at 4 weeks post challenge,[9],117 nM
same,concentration at 5 weeks post challenge,[9],68.2 nM
same,concentration at 6 weeks post challenge,[9],132 nM
same,concentration at 7 weeks post challenge,[9],57.4 nM
same,concentration at 0 weeks post challenge,[10],28.2 nM
same,concentration at 1 weeks post challenge,[10],12.5 nM
same,concentration at 2 weeks post challenge,[10],12.4 nM
same,concentration at 3 weeks post challenge,[10],14.8 nM
same,concentration at 4 weeks post challenge,[10],11.2 nM
same,concentration at 5 weeks post challenge,[10],9.22 nM
same,concentration at 6 weeks post challenge,[10],8.59 nM
same,concentration at 0.14 week,[11],9.76 nM
same,concentration at 0.43 week,[11],5.72 nM
same,concentration at 1 week,[11],2.82 nM
same,concentration at 2 week,[11],2.96 nM
same,concentration at 0.14 week,[12],19.9 nM
same,concentration at 0.43 week,[12],13.4 nM
same,concentration at 1 week,[12],6.88 nM
same,concentration at 2 week,[12],8.58 nM
same,concentration at 0.14 week,[13],41.3 nM
same,concentration at 0.43 week,[13],17.8 nM
same,concentration at 1 week,[13],9.23 nM
same,concentration at 2 week,[13],16.6 nM
same,concentration at 0.14 week,[14],196 nM
same,concentration at 0.43 week,[14],79 nM
same,concentration at 1 week,[14],56.5 nM
same,concentration at 2 week,[14],87.1 nM
same,concentration at 17 week,[14],22.1 nM
same,concentration at 18 week,[14],17 nM
same,concentration at 19 week,[14],11.1 nM
same,concentration at 20 week,[14],8.52 nM
same,concentration at 21 week,[14],6.49 nM
same,concentration at 22 week,[14],7.23 nM
same,concentration at 23 week,[14],5.76 nM
same,concentration at 24 week,[14],6.32 nM
same,concentration at 25 week,[14],6.61 nM
same,concentration at 0.14 week,[15],498 nM
same,concentration at 0.43 week,[15],223 nM
same,concentration at 1 week,[15],162 nM
same,concentration at 2 week,[15],213 nM
same,concentration at 17 week,[15],24.5 nM
same,concentration at 18 week,[15],20.9 nM
same,concentration at 19 week,[15],16.2 nM
same,concentration at 20 week,[15],16.6 nM
same,concentration at 21 week,[15],12.3 nM
same,concentration at 22 week,[15],9.35 nM
same,concentration at 23 week,[15],10.3 nM
same,concentration at 24 week,[15],11.8 nM
same,concentration at 25 week,[15],11.6 nM
same,half-life,"outbred Indian-origin, 5-75 mg/kg sc, read-out: plasma drug half-life",14 to 56 days
same,half-life,"outbred Indian-origin, single sc dosing, range over 5-75 mg/kg groups, read-out: half-life",17 to 53 days
same,concentration at 3 weeks,[16],4.23 nM
same,concentration at 4 weeks,[16],4.14 nM
same,concentration at 5 weeks,[16],6 nM
same,concentration at 6 weeks,[16],4.42 nM
same,concentration at 7 weeks,"outbred Indian-origin, subcutaneous, 5 mg/kg, Plasma LEN (Mean), 5 mg/kg sc, week 7 post dose",5.29 nM
same,concentration at 3 weeks,[17],11.3 nM
same,concentration at 4 weeks,[17],10.2 nM
same,concentration at 5 weeks,[17],12.8 nM
same,concentration at 6 weeks,[17],7.32 nM
same,concentration at 7 weeks,"outbred Indian-origin, subcutaneous, 10 mg/kg, Plasma LEN (Mean), 10 mg/kg sc, week 7 post dose",10.1 nM
same,concentration at 3 weeks,[18],21.2 nM
same,concentration at 4 weeks,[18],23.9 nM
same,concentration at 5 weeks,[18],30.1 nM
same,concentration at 6 weeks,[18],26.8 nM
same,concentration at 7 weeks,"outbred Indian-origin, subcutaneous, 20 mg/kg, Plasma LEN (Mean), 20 mg/kg sc, week 7 post dose",27.4 nM
same,concentration at 3 weeks,[19],92.4 nM
same,concentration at 4 weeks,[19],85.3 nM
same,concentration at 5 weeks,[19],80.6 nM
same,concentration at 6 weeks,[19],71.9 nM
same,concentration at 7 weeks,"outbred Indian-origin, subcutaneous, 50 mg/kg, Plasma LEN (Mean), 50 mg/kg sc, week 7 post dose",103 nM
same,concentration at 3 weeks,[20],126 nM
same,concentration at 4 weeks,[20],95.8 nM
same,concentration at 5 weeks,[20],89.9 nM
same,concentration at 6 weeks,[20],65.1 nM
same,concentration at 7 weeks,"outbred Indian-origin, subcutaneous, 75 mg/kg, Plasma LEN (Mean), 75 mg/kg sc, week 7 post dose",129 nM
same,concentration at 7 weeks,"outbred Indian-origin, subcutaneous, LEN exposures at the time of challenge, 11 challenged animals, week 7 postdose",18 to 177 nM
same,AUC(0-t),"outbred Indian-origin, 5 mg/kg sc, mean ± SD",9.3 ± 1.9 µM·h
same,AUC(0-inf),[21],243 ± 70 µM·h
same,AUC(0-t),[21],179 ± 23 µM·h
same,Cmax,[21],200 ± 74 nM

# Reference: PMC10425210 (The Journal of Clinical Investigation, 2023)
